Results published in ChEMBL document CHEMBL3045600, “Synthesis and Fungicidal Activities of Phenoxyphenyl Alkoxyiminoacetamide Derivatives” (J Pestic Sci, 1998).

Assays:
Assay type in all cases: functional
Thanatephorus cucumeris [1] = assay: Fungicidal activity against Thanatephorus cucumeris assessed as rice sheath blight disease control at 31.3 ppm foliar application for 24 hr before inoculation at 26 +- 2 measured after 5 days by preventive manner
Thanatephorus cucumeris [2] = assay: Fungicidal activity against Thanatephorus cucumeris assessed as rice sheath blight disease control at 7.8 ppm foliar application for 24 hr before inoculation at 26 +- 2 measured after 5 days by preventive manner
Thanatephorus cucumeris [3] = assay: Fungicidal activity against Thanatephorus cucumeris assessed as rice sheath blight disease control at 2 ppm foliar application for 24 hr before inoculation at 26 +- 2 measured after 5 days by preventive manner
Podosphaera fuliginea [4] = assay: Fungicidal activity against Podosphaera fuliginea assessed as cucumber powdery mildew control under greenhouse at 7.8 ppm foliar application 24 hr after inoculation on upper surface of leaf at 23 +/- 2 degC by curative manner
Podosphaera fuliginea [5] = assay: Fungicidal activity against Podosphaera fuliginea assessed as cucumber powdery mildew control under greenhouse at 2 ppm foliar application 24 hr after inoculation on upper surface of leaf at 23 +/- 2 degC by curative manner
Pyricularia oryzae [6] = assay: Fungicidal activity against Magnaporthe oryzae assessed as rice blast disease control at 10 ppm submerged application measured after 7 days
Pyricularia oryzae [7] = assay: Fungicidal activity against Magnaporthe oryzae assessed as rice blast disease control at 2.5 ppm submerged application measured after 7 days
Pyricularia oryzae [8] = assay: Fungicidal activity against Magnaporthe oryzae assessed as rice blast disease control at 0.63 ppm submerged application measured after 7 days
Pyricularia oryzae [9] = assay: Fungicidal activity against Magnaporthe oryzae assessed as rice blast disease control at 0.16 ppm submerged application measured after 7 days
[10] = test system: Pseudoperonospora cubensis; assay: Fungicidal activity against Pseudoperonospora cubensis assessed as cucumber downy mildew disease control at 125 ppm foliar application 24 hr before inoculation on upper surface of leaf by preventive manner
[11] = test system: Pseudoperonospora cubensis; assay: Fungicidal activity against Pseudoperonospora cubensis assessed as cucumber downy mildew disease control at 31.3 ppm foliar application 24 hr before inoculation on upper surface of leaf by preventive manner
[12] = test system: Pseudoperonospora cubensis; assay: Fungicidal activity against Pseudoperonospora cubensis assessed as cucumber downy mildew disease control at 7.8 ppm foliar application 24 hr before inoculation on upper surface of leaf by preventive manner
[13] = test system: Pseudoperonospora cubensis; assay: Fungicidal activity against Pseudoperonospora cubensis assessed as cucumber downy mildew disease control at 2 ppm foliar application 24 hr before inoculation on upper surface of leaf by preventive manner
Podosphaera fuliginea [14] = assay: Fungicidal activity against Podosphaera fuliginea assessed as cucumber powdery mildew control under greenhouse at 125 ppm foliar application 24 hr before inoculation on upper surface of leaf at 23 +/- 2 degC by preventive manner
Podosphaera fuliginea [15] = assay: Fungicidal activity against Podosphaera fuliginea assessed as cucumber powdery mildew control under greenhouse at 31.3 ppm foliar application 24 hr before inoculation on upper surface of leaf at 23 +/- 2 degC by preventive manner
Podosphaera fuliginea [16] = assay: Fungicidal activity against Podosphaera fuliginea assessed as cucumber powdery mildew control under greenhouse at 7.8 ppm foliar application 24 hr before inoculation on upper surface of leaf at 23 +/- 2 degC by preventive manner
Podosphaera fuliginea [17] = assay: Fungicidal activity against Podosphaera fuliginea assessed as cucumber powdery mildew control under greenhouse at 2 ppm foliar application 24 hr before inoculation on upper surface of leaf at 23 +/- 2 degC by preventive manner
Thanatephorus cucumeris [18] = assay: Fungicidal activity against Thanatephorus cucumeris assessed as rice sheath blight disease control at 125 ppm foliar application for 24 hr before inoculation at 26 +- 2 measured after 5 days by preventive manner
Botrytis cinerea [19] = assay: Fungicidal activity against Botryotinia fuckeliana assessed as cucumber gray mold disease control at 31.3 ppm foliar application 24 hr after inoculation at 22 +/- 2 degC measured after 3 days by curative manner
Botrytis cinerea [20] = assay: Fungicidal activity against Botryotinia fuckeliana assessed as cucumber gray mold disease control at 7.8 ppm foliar application 24 hr after inoculation at 22 +/- 2 degC measured after 3 days by curative manner
Botrytis cinerea [21] = assay: Fungicidal activity against Botryotinia fuckeliana assessed as cucumber gray mold disease control at 2 ppm foliar application 24 hr after inoculation at 22 +/- 2 degC measured after 3 days by curative manner
Podosphaera fuliginea [22] = assay: Fungicidal activity against Podosphaera fuliginea assessed as cucumber powdery mildew control under greenhouse at 125 ppm foliar application 24 hr after inoculation on upper surface of leaf at 23 +/- 2 degC by curative manner
Podosphaera fuliginea [23] = assay: Fungicidal activity against Podosphaera fuliginea assessed as cucumber powdery mildew control under greenhouse at 31.3 ppm foliar application 24 hr after inoculation on upper surface of leaf at 23 +/- 2 degC by curative manner
Botrytis cinerea [24] = assay: Fungicidal activity against Botryotinia fuckeliana assessed as cucumber gray mold disease control at 125 ppm foliar application 24 hr after inoculation at 22 +/- 2 degC measured after 3 days by curative manner

SMILES | Activity (Thanatephorus cucumeris [1]) [%] | Activity (Thanatephorus cucumeris [2]) [%] | Activity (Thanatephorus cucumeris [3]) [%] | Activity (Podosphaera fuliginea [4]) [%] | Activity (Podosphaera fuliginea [5]) [%] | Activity (Pyricularia oryzae [6]) [%] | Activity (Pyricularia oryzae [7]) [%] | Activity (Pyricularia oryzae [8]) [%] | Activity (Pyricularia oryzae [9]) [%] | Activity [10] [%] | Activity [11] [%] | Activity [12] [%] | Activity [13] [%] | Activity (Podosphaera fuliginea [14]) [%] | Activity (Podosphaera fuliginea [15]) [%] | Activity (Podosphaera fuliginea [16]) [%] | Activity (Podosphaera fuliginea [17]) [%] | Activity (Thanatephorus cucumeris [18]) [%] | Activity (Podosphaera fuliginea [22]) [%] | Activity (Podosphaera fuliginea [23]) [%] | further results
CNC(=O)/C(=N/OC)c1ccccc1Oc1cccc(OCc2ccccc2)c1 | 70 | 70 | 70 | 50 | 50 | <50 | <50 | <50 | <50 | 70 | 70 | 70 | 70 | 70 | 70 | 70 | 70 | 70 | 50 | 50 | Activity (Botrytis cinerea [19]): 50%; Activity (Botrytis cinerea [20]): 50%; Activity (Botrytis cinerea [21]): 50%; Activity (Botrytis cinerea [24]): 50%
CNC(=O)/C(=N/OC)c1ccccc1Oc1ccc([Si](C)(C)C)cc1 | <70 | <70 | <70 | 50 | 50 | <50 | <50 | <50 | <50 | <70 | <70 | <70 | <70 | 70 | 70 | 70 | 70 | <70 | 50 | 50 | Activity (Botrytis cinerea [19]): <50%; Activity (Botrytis cinerea [20]): <50%; Activity (Botrytis cinerea [21]): <50%; Activity (Botrytis cinerea [24]): <50%
CNC(=O)/C(=N/OC)c1ccccc1Oc1ccc(C(C)C)cc1 | 70 | 70 | 70 | 50 | 50 | 50 | 50 | 50 | 50 | 70 | 70 | 70 | 70 | 70 | 70 | 70 | 70 | 70 | 50 | 50 | Activity (Botrytis cinerea [19]): 50%; Activity (Botrytis cinerea [20]): 50%; Activity (Botrytis cinerea [21]): 50%; Activity (Botrytis cinerea [24]): 50%
CNC(=O)/C(=N/OC)c1ccccc1Oc1ccc(Oc2ccccc2)cc1 | 70 | 70 | 70 | 50 | 50 | 50 | 50 | 50 | 50 | <70 | <70 | <70 | <70 | 70 | 70 | 70 | 70 | 70 | 50 | 50 | –
CNC(=O)/C(=N/OC)c1ccccc1Oc1ccc(C(C)C)cc1C(C)C | 70 | 70 | 70 | 50 | 50 | 50 | 50 | 50 | 50 | <70 | <70 | <70 | <70 | 70 | 70 | 70 | 70 | 70 | 50 | 50 | –
CNC(=O)/C(=N/OC)c1ccccc1C(=O)c1ccccc1 | <70 | <70 | <70 | – | – | – | – | – | – | <70 | <70 | <70 | <70 | <70 | <70 | <70 | <70 | <70 | – | – | –
CNC(=O)/C(=N/OC)c1ccc(C)cc1Oc1ccccc1 | 70 | 70 | 70 | – | – | – | – | – | – | 70 | 70 | 70 | 70 | 70 | 70 | 70 | 70 | 70 | – | – | –
CCNC(=O)/C(=N/OC)c1ccccc1Oc1ccccc1 | 70 | 70 | 70 | – | – | – | – | – | – | <70 | <70 | <70 | <70 | 70 | 70 | 70 | 70 | 70 | – | – | –
CNC(=O)/C(=N/OC)c1cc(OC)ccc1Oc1ccccc1 | 70 | 70 | 70 | – | – | – | – | – | – | 70 | 70 | 70 | 70 | 70 | 70 | 70 | 70 | 70 | – | – | –
CNC(=O)/C(=N/OC)c1cc([N+](=O)[O-])ccc1Oc1ccccc1 | <70 | <70 | <70 | – | – | – | – | – | – | <70 | <70 | <70 | <70 | <70 | <70 | <70 | <70 | <70 | – | – | –
CNC(=O)/C(=N/OC)c1ccccc1Oc1cccc(OCC#N)c1 | <70 | <70 | <70 | 50 | 50 | <50 | <50 | <50 | <50 | <70 | <70 | <70 | <70 | 70 | 70 | 70 | 70 | <70 | 50 | 50 | –
CNC(=O)/C(=N/OC)c1ccccc1Oc1cccc(O)c1 | 70 | 70 | 70 | – | – | 50 | 50 | 50 | 50 | <70 | <70 | <70 | <70 | <70 | <70 | <70 | <70 | 70 | – | – | –
CNC(=O)/C(=N/OC)c1ccccc1SCc1ccccc1 | 70 | 70 | 70 | – | – | – | – | – | – | 70 | 70 | 70 | 70 | 70 | 70 | 70 | 70 | 70 | – | – | –
